Results published in patent US11498920B2, “4-(1H-imidazol-5-yl)-1H-pyrrolo[2, 3-b] pyridines for use in the treatment of leukaemias, lymphomas and solid tumors” (MASARYKOVA UNIVERZITA, priority 2018, dated 2022).
Entries after “also recorded” stand apart in the source; their conditions may differ.

Key:
[1] = tested on: primary CLL cells; test: Cytotoxicity, TMRE flow cytometry viability, primary CLL cells (Example II.1); format: cell-based; conditions: Homo sapiens, CLL cell, 6 hours, TMRE positive cells normalized to control, ratio to PF670462, <1 = higher cytotoxicity than PF670462, read-out: Viability of cells, Compound of formula I (100 μM), relative to PF670462 (100 μM), CLL primary cells
[2] = tested on: Maver-1 cells (mantle cell lymphoma); test: Cytotoxicity, TMRE flow cytometry viability, Maver-1 cells (Example II.1); format: cell-based; conditions: Homo sapiens, Maver1, 24 hours, TMRE positive cells normalized to control, ratio to PF670462, <1 = higher cytotoxicity than PF670462, read-out: Viability of cells, Compound of formula I (100 μM), relative to PF670462 (100 μM), Maver-1 cells (mantle cell lymphoma)
[3] = tested on: A375; test: Cytotoxicity on panel of cell lines, TMRE viability (Example II.2); format: cell-based; conditions: Homo sapiens, A-375, 24 hours, mean, control = 1, read-out: cell viability relative to control, A375 (melanoma)
Description: (§1) The leukemia and lymphoma-derived cell lines [MEC-1 cell line (derived from chronic lymphocytic leukemia—CLL), Nalm-16 (acute lymphocytic leukemia—ALL), K562 (chronic myeloid leukemia—CML), HL-60 (acute myeloid leukemia—AML), Maver-1 and Mino (mantle cell lymphoma—MCL), BL-41 (Burkitt lymphoma—BL), WSU-NHL (follicular lymphoma—FL), SUDHL (diffuse large B-cell lymphoma—DLBCL)], primary CLL cells and nonmalignant control primary cells were cultured in suspension in flasks under the following conditions: RPMI 1640 medium (Hyclone) supplemented with 10% fetal bovine serum (FBS, Gibco) and 1% penicillin/streptomycin (Life Technologies), 37° C., 5% CO2 and 95% relative humidity, with optimal culture cell density 5×10^6 cells/mL in case of primary cells and 0.5-1×10^6 cells/mL in case of cell lines. The adherent cell lines [A375 (derived from malignant melanoma), MDA-MB-231 and MCF-7 (breast cancer), MIA-PA-CA and PANC1 (pancreatic cancer), PC3 (prostate cancer), OVCAR4 (ovarian cancer) and HEPG2 (hepatocellular carcinoma)] were cultured on plates under the same conditions using RPMI1640 or DMEM medium (Gibco) according to instructions provided by the distributor (DSMZ/ATCC).
(§2) The tested cell lines were incubated with inhibitors at 30 μM concentration or corresponding amount of solvent (DMSO, Sigma Aldrich) in standard culture conditions, seeded as 10^5 cells/500 μl per well in a 24-well plate. Experiments were performed in technical duplicates and 2-3 biological repetitions per cell line. Viability of cells was assessed after 24 hours.
(§3) Relative values are presented as a mean value, showing ratio to the effect of control. Relative value <1=lower viability than control condition.

[4] = tested on: BL-41; test: as above; format: cell-based; conditions: Homo sapiens, 24 hours, mean, control = 1, read-out: cell viability relative to control, BL-41 (BL)
Description: as §1, §2, §3

[5] = tested on: HEPG2; test: as above; format: cell-based; conditions: Homo sapiens, 24 hours, mean, control = 1, read-out: cell viability relative to control, HEPG2 (hepatocellular carcinoma)
Description: as §1, §2, §3

[6] = tested on: HL60; test: as above; format: cell-based; conditions: Homo sapiens, HL-60, 24 hours, mean, control = 1, read-out: cell viability relative to control, HL60 (AML)
Description: as §1, §2, §3

[7] = tested on: K562; test: as above; format: cell-based; conditions: Homo sapiens, 24 hours, mean, control = 1, read-out: cell viability relative to control, K562 (CML)
Description: as §1, §2, §3

[8] = tested on: MCF-7; test: as above; format: cell-based; conditions: Homo sapiens, MCF7, 24 hours, mean, control = 1, read-out: cell viability relative to control, MCF-7 (breast cancer)
Description: as §1, §2, §3

[9] = tested on: MDA-MB-231; test: as above; format: cell-based; conditions: Homo sapiens, 24 hours, mean, control = 1, read-out: cell viability relative to control, MDA-MB-231 (breast cancer)
Description: as §1, §2, §3

[10] = tested on: MEC-1; test: as above; format: cell-based; conditions: Homo sapiens, MEC1, 24 hours, mean, control = 1, read-out: cell viability relative to control, MEC-1 (CLL)
Description: as §1, §2, §3

[11] = tested on: MIA-PA-CA; test: as above; format: cell-based; conditions: Homo sapiens, MIA PaCa-2, 24 hours, mean, control = 1, read-out: cell viability relative to control, MIA-PA-CA (pancreatic cancer)
Description: as §1, §2, §3

[12] = tested on: Maver1; test: as above; format: cell-based; conditions: Homo sapiens, 24 hours, mean, control = 1, read-out: cell viability relative to control, Maver1 (MCL)
Description: as §1, §2, §3

[13] = tested on: Mino; test: as above; format: cell-based; conditions: Homo sapiens, 24 hours, mean, control = 1, read-out: cell viability relative to control, Mino (MCL)
Description: as §1, §2, §3

[14] = tested on: Nalm16; test: as above; format: cell-based; conditions: 24 hours, mean, control = 1, read-out: cell viability relative to control, Nalm16 (ALL)
Description: as §1, §2, §3

[15] = tested on: OVCAR4; test: as above; format: cell-based; conditions: Homo sapiens, OVCAR-4, 24 hours, mean, control = 1, read-out: cell viability relative to control, OVCAR4 (ovarian cancer)
Description: as §1, §2, §3

[16] = tested on: PANC1; test: as above; format: cell-based; conditions: Homo sapiens, PANC-1, 24 hours, mean, control = 1, read-out: cell viability relative to control, PANC1 (pancreatic cancer)
Description: as §1, §2, §3

[17] = tested on: PC3; test: as above; format: cell-based; conditions: Homo sapiens, PC-3, 24 hours, mean, control = 1, read-out: cell viability relative to control, PC3 (prostate cancer)
Description: as §1, §2, §3

[18] = tested on: SUDHL; test: as above; format: cell-based; conditions: 24 hours, mean, control = 1, read-out: cell viability relative to control, SUDHL (DLBCL)
Description: as §1, §2, §3

[19] = tested on: primary CLL; test: as above; format: cell-based; conditions: Homo sapiens, 24 hours, mean, control = 1, read-out: cell viability relative to control, primary CLL
Description: as §1, §2, §3

[20] = Specificity of cytotoxic activity, TMRE viability, primary nonmalignant control cells (Example II.4); format: cell-based; conditions: human, N = 4, read-out: Viability - mean % of control, Primary healthy cells
[21] = tested on: primary CLL cells; test: Induction of apoptosis, western blotting of cleaved PARP in primary CLL cells; format: cell-based, human; conditions: 10 μM, overnight, listed as preparatory example 3
[22] = tested on: primary CLL cells; test: Specificity of cytotoxic activity, TMRE viability, primary CLL cells (Example II.4); conditions: for selective toxicity towards cancer cells vs nonmalignant controls (FIG. 4, Table 3): primary CLL cells vs healthy cells
[23] = tested on: WSU-NHL; test: Cytotoxicity on panel of cell lines, TMRE viability (Example II.2); format: cell-based; conditions: Homo sapiens, 24 hours, mean, control = 1, read-out: cell viability relative to control, WSU-NHL (FL)
Description: as §1, §2, §3

## Cc1nc(-c2ccc(F)cc2)c(-c2ccnc3[nH]ccc23)n1C1CCCCC1 [Preparative Example 61, 4-(1-cyclohexyl-4-(4-fluorophenyl)-2-methyl-1H-imidazol-5-yl)-1H-pyrrolo[2,3-b]pyridine]
[1]
  viability at 100 µM: 35%
[2]
  viability at 100 µM: 2%
[3]
  viability at 30 µM: 20%
[4]
  viability at 30 µM: 22%
[5]
  viability at 30 µM: 60%
[6]
  viability at 30 µM: 63%
[7]
  viability at 30 µM: 80%
[8]
  viability at 30 µM: 39%
[9]
  viability at 30 µM: 46%
[10]
  viability at 30 µM: 41%
[11]
  viability at 30 µM: 58%
[12]
  viability at 30 µM: 52%
[13]
  viability at 30 µM: 28%
[14]
  viability at 30 µM: 6%
[15]
  viability at 30 µM: 77%
[16]
  viability at 30 µM: 81%
[17]
  viability at 30 µM: 71%
[18]
  viability at 30 µM: 24%
[19]
  viability at 30 µM: 70%

## Fc1ccc(-c2ncn(C3CCCCC3)c2-c2ccnc3[nH]ccc23)cc1 [Preparative Example 3, 4-(1-cyclohexyl-4-(4-fluorophenyl)-1H-imidazol-5-yl)-1H-pyrrolo[2,3-b]pyridine]
[1]
  viability at 100 µM: 30%
[2]
  viability at 100 µM: 27%
[3]
  viability at 30 µM: 64%
[4]
  viability at 30 µM: 17%
[5]
  viability at 30 µM: 47%
[6]
  viability at 30 µM: 72%
[7]
  viability at 30 µM: 81%
[8]
  viability at 30 µM: 53%
[9]
  viability at 30 µM: 69%
[10]
  viability at 30 µM: 43%
[11]
  viability at 30 µM: 61%
[12]
  viability at 30 µM: 54%
[13]
  viability at 30 µM: 38%
[14]
  viability at 30 µM: 32%
[15]
  viability at 30 µM: 73%
[16]
  viability at 30 µM: 65%
[18]
  viability at 30 µM: 18%
[19]
  viability at 30 µM: 69%
[20]
  viability at 6 h, 30 µM: 80.9%
[21]
  cleaved PARP, marker of apoptosis (FIG. 2): Increased PARP cleavage; also recorded: increase of cleaved PARP
[22]; 30 μM, 6 hours, N = 8
  Viability - mean % of control, Primary CLL: 37.3% (N = 8)
[22]; 30 μM, 6 hours
  selective toxicity towards cancer cells vs nonmalignant controls (FIG. 4, Table 3): significantly higher cytotoxic effects towards cancer cells than nonmalignant controls
[22]; 30 μM, 6 hours, listed as prep. example 3
  selective toxicity towards cancer cells vs nonmalignant controls (FIG. 4, Table 3): selective towards cancer cells
[22]; 6 h, indicated doses of inhibitors, listed as preparatory example 3
  dose-dependent cytotoxic effect / apoptosis of primary CLL cells (FIG. 1): induced dose-dependently

## C=CS(=O)(=O)N[C@H]1CC[C@@H](n2cnc(-c3ccc(F)cc3)c2-c2ccnc3[nH]ccc23)CC1 [Preparative Example 97]
[1]
  viability at 100 µM: 18%
[2]
  viability at 100 µM: 1%
[3]
  viability at 30 µM: 17%
[4]
  viability at 30 µM: 11%
[5]
  viability at 30 µM: 39%
[6]
  viability at 30 µM: 68%
[8]
  viability at 30 µM: 28%
[9]
  viability at 30 µM: 53%
[10]
  viability at 30 µM: 1%
[11]
  viability at 30 µM: 23%
[12]
  viability at 30 µM: 1%
[13]
  viability at 30 µM: 0%
[15]
  viability at 30 µM: 78%
[16]
  viability at 30 µM: 50%
[17]
  viability at 30 µM: 74%
[18]
  viability at 30 µM: 68%
[23]
  viability at 30 µM: 2%
[19]
  viability at 30 µM: 51%
